7 molecules from ChEMBL document CHEMBL1152752, “Chemical components and its antioxidant properties in vitro: an edible marine brown alga, Ecklonia cava” (Bioorg Med Chem, 2009) can be followed below.

Data set [1] is described as follows: Antioxidant activity assessed as Fenton system generated hydroxyl radical scavenging activity by ESR spectrometer. Type of data set: functional.
Data set [2] has as its system Radical scavenging activity. Nature of the data set: Antioxidant activity assessed as DPPH radical scavenging activity. Type of data set: functional. A general note: The DPPH test is a chemical assay of radical scavenging.
Data set [3] can be described thus: Antioxidant activity assessed as superoxide radical scavenging activity. Type of data set: functional.
The nature of data set [4]: Antioxidant activity assessed as […] generated peroxyl radical scavenging formation by ESR spectrometer. Type of data set: functional.
In another data set the test system is MRC5. Description: Cytotoxicity against human MRC5 cells at 100 uM after 24 hrs by MTT assay. As to conditions: mrc5, 24 h. Type of data set: cell-based. Background: Tetrazolium dyes change colour on reduction, which living cells bring about.
The test system of data set [5] is RAW264.7. Nature of the data set: Cytotoxicity against mouse RAW264.7 cells at 100 uM after 24 hrs by MTT assay. Type of data set: functional, cell-based.
The next data set deals with HL-60. Nature of the data set: Cytotoxicity against human HL60 cells at 100 uM after 24 hrs by MTT assay. It counts as functional, cell-based.
Data set [6] relates to RAW264.7. Description: Antioxidant activity against mouse RAW264.7 cells assessed as reduction of ROS production measured by fluorescent dichlorofluorescein using DCFH-DA substrate. Type of data set: functional, cell-based.
Data set [7] concerns RAW264.7. Nature of the data set: Antioxidant activity against mouse RAW264.7 cells assessed as reduction of ROS production after 200 mins measured by fluorescent dichlorofluorescein using DCFH-DA substrate. It counts as functional, cell-based. Conditions: TDE = time-dependent effect.
In data set [8] the test system is RAW264.7. Nature of the data set: Antioxidant activity against mouse RAW264.7 cells assessed as reduction of ROS production at 50 uM after 200 mins measured by fluorescent dichlorofluorescein using DCFH-DA substrate. It counts as functional, cell-based.
Data set [9] deals with RAW264.7. Description: Antioxidant activity against mouse RAW264.7 cells assessed as reduction of ROS production at 50 uM after 210 mins measured by fluorescent dichlorofluorescein using DCFH-DA substrate. Type of data set: functional. Set-up: scale not given: the % may be the effect or the level left.
In data set [10] the test system is RAW264.7. Description: Increase in intracellular GSH level in mouse RAW264.7 cells assessed as monobromobimane-GSH fluorescence intensity at 20 uM after 120 mins. Type of data set: functional, cell-based.
In data set [11] the test system is RAW264.7. Description: Inhibition of Fe(2+)/H2O2-generated hydroxyl radical induced membrane protein oxidation in mouse RAW264.7 cells at 1 uM to 50 uM relative to control. Type of data set: functional.
Data set [12] deals with RAW264.7. Nature of the data set: Antioxidant activity against mouse RAW264.7 cells assessed as reduction of ROS production at 1 uM after 200 mins measured by fluorescent dichlorofluorescein using DCFH-DA substrate. Type of data set: functional, cell-based.
Data set [13] has as its target T1, Myeloperoxidase (Homo sapiens) (UniProt P05164).
T1 sequence (whole entry): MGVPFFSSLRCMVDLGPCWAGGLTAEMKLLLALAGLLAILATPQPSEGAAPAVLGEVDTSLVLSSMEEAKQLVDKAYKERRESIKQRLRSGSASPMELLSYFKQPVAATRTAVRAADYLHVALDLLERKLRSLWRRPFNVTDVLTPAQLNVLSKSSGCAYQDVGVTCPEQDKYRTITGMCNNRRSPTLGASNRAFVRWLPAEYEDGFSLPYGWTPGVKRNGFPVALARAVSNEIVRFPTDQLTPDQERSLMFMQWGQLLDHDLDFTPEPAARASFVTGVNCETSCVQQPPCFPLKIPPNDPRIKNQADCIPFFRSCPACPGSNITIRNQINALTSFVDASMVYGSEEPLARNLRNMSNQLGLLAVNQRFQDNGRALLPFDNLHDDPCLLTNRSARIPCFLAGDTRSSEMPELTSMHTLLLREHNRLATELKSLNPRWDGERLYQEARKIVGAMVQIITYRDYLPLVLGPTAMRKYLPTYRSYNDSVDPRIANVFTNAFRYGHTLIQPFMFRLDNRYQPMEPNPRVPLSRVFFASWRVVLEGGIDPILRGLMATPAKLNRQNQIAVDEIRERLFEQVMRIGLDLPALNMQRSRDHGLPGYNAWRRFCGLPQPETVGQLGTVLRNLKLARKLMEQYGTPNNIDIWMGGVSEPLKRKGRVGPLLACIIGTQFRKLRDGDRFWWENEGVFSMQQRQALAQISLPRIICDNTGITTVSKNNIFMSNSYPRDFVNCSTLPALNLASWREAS
Nature of the data set: Inhibition of MPO activity in TNF-alpha-stimulated human HL60 cells measured enzyme activity per 10^6 cells by spectrophotometrically. It counts as cell-based. Conditions: HL-60.

Data set [14] has as its target T1, Myeloperoxidase (Homo sapiens). Nature of the data set: Inhibition of MPO activity in TNF-alpha-stimulated human HL60 cells measured enzyme activity per 10^6 cells at 10 uM by spectrophotometrically. It counts as cell-based. As to conditions: HL-60.
Data set [15] has the same target. Nature of the data set: Inhibition of MPO activity in TNF-alpha-stimulated human HL60 cells measured enzyme activity per 10^6 cells at 50 uM by spectrophotometrically. It counts as cell-based. As to conditions: HL-60.

Active and inactive are the calls of the source. The calls are words filed in the database; no cut-off is given here.

Broadly, the IC50 is the concentration that inhibits the measured activity by half. As for `Oc1cc(O)c(Oc2cc(O)cc(O)c2Oc2cc(O)cc(O)c2-c2c(O)cc(O)cc2O)c(O)c1` [FUCODIPHLOROETHOL G], the concentration for half-maximal inhibition (IC50) in [1] is 33.5 µM; in data set [2], 14.7 µM; in data set [3] it was 18.6 µM; in [4] it was 18.1 µM. Further, the Activity entry is “Non-toxic” in the data set with MRC5, “Dose-dependent effect” in the data set on RAW264.7 [6], “tde” in the data set with RAW264.7 [7] and 75.6% with RAW264.7 [9]. The result in the data set with RAW264.7 [5] and in the data set on HL-60 was inactive. Besides, the outcome in the data set on RAW264.7 [8] and in the data set with RAW264.7 [10] was Active.
`Oc1cc(O)cc(Oc2c(O)cc(O)c3c2Oc2c(O)cc(Oc4c(O)cc(O)cc4O)cc2O3)c1`: the IC50 in [1] was 39.6 µM; in [2], 18.6 µM; in [3] it was 21.9 µM; in data set [4], 22.7 µM. Further, the Activity result is “Non-toxic” in the data set on MRC5, “Dose-dependent effect” with RAW264.7 [6] and “tde” with RAW264.7 [7]. In addition, the outcome in the data set on RAW264.7 [5] and with HL-60 was inactive. Also, the result with RAW264.7 [11] was Active.
Consider `Oc1cc(O)cc(Oc2c(O)cc(O)c3c2Oc2c(O)cc(O)cc2O3)c1` [ECKOL], for which the IC50 in data set [1] came out at 51.8 µM; in data set [2], 22.9 µM; in data set [3], 26.5 µM; in data set [4], 28.4 µM. Besides, the Activity result with MRC5 is “Non-toxic”. Further, the outcome in the data set with RAW264.7 [5] and with HL-60 was inactive.
Consider `Oc1cc(O)cc(Oc2c(O)cc(O)c3c2Oc2c(O)cc(O)c(-c4c(O)cc(O)c5c4Oc4c(O)cc(O)c(Oc6cc(O)cc(O)c6)c4O5)c2O3)c1`, for which the IC50 in data set [1] was determined as 29.7 µM; in [2], 8.69 µM; in data set [3], 15.9 µM; in [4] it was 17.1 µM. Also, the Activity result in the data set with MRC5 is “Non-toxic”; with RAW264.7 [6] it was “Dose-dependent effect”; in the data set with RAW264.7 [7], “tde”; in the data set with RAW264.7 [9], 83.58%; in data set [13] it was “Dose-dependent effect”; in data set [14], 0.53 IU. The molecule further displayed an Activity in data set [15] of 0.47 IU. Also, the outcome with RAW264.7 [5] and in the data set on HL-60 was inactive. The result with RAW264.7 [12], in the data set on RAW264.7 [8] and with RAW264.7 [10] was Active. For the same molecule, the “inhibition (INH)” value in the data set on RAW264.7 [11] is listed as 67.3%.
Regarding `Oc1cc(O)cc(O)c1` [PHLOROGLUCINOL], the figures for the IC50 in [1], in data set [3] and in [4] were 392 µM, 115 µM and 129 µM, respectively. For the same molecule, the Activity entry in the data set with MRC5 was “Non-toxic”. The result with RAW264.7 [5] and in the data set on HL-60 was inactive.
Turning to `Oc1cc(O)cc(Oc2c(O)cc(O)c3c2Oc2c(O)cc(Oc4c(O)cc(Oc5c(O)cc(O)c6c5Oc5c(O)cc(O)cc5O6)cc4O)cc2O3)c1` [DIECKOL], the IC50 was 28.6 µM in [1], 8.28 µM in [2], 16.2 µM in data set [3] and 14.5 µM in [4]. Also, the Activity result in the data set with MRC5 was “Non-toxic”; in the data set on RAW264.7 [6] it was “Dose-dependent effect”; in the data set with RAW264.7 [7] it was “tde”; in the data set on RAW264.7 [9], 84.27%; in [13] it was “Dose-dependent effect”; in [14], 0.51 IU. The same molecule displayed an Activity in data set [15] of 0.45 IU. Further, the result in the data set with RAW264.7 [5] and in the data set on HL-60 was inactive. The result with RAW264.7 [12], in the data set with RAW264.7 [8] and in the data set on RAW264.7 [10] was Active. Further, in the data set on RAW264.7 [11], the “inhibition (INH)” value is on record as 70.5%.
`Oc1cc(O)cc(Oc2c(O)cc(O)c3c2Oc2c(O)cc4oc5c(Oc6cc(O)cc(O)c6)c(O)cc(O)c5c4c2O3)c1` [PHLOROFUCOFUROECKOL A]: the IC50 came out at 39.2 µM in [1], 17.7 µM in data set [2], 21.6 µM in [3] and 21.4 µM in [4]. Moreover, the Activity result with MRC5 was “Non-toxic”; in the data set on RAW264.7 [6], “Dose-dependent effect”; with RAW264.7 [7], “tde”. The result in the data set on RAW264.7 [5] and with HL-60 was inactive. In the data set with RAW264.7 [11], the outcome was Active.
